The values below come from US20130310256A1, “HERBICIDAL COMPOSITIONS COMPRISING 4-AMINO-3-CHLORO-5-FLUORO-6-(4-CHLORO-2-FLUORO-3-METHOXYPHENYL) PYRIDINE-2-CARBOXYLIC ACID OR A DERIVATIVE THEREOF AND VLCFA AND LIPID SYNTHESIS INHIBITING HERBICIDES” (DOW AGROSCIENCES LLC, priority 2008, published 2013).

“And” between values parts separate entries of the source, which are not always exact repeats. Identical values can stand only once.

One assay has as its system LEFCH. Description: Example II: in-water applied weed control, transplanted paddy rice, greenhouse. It is filed as in vivo, Leptochloa chinensis (L.) Nees (Chinese sprangletop). The protocol: Weed seeds or nutlets of the desired test plant species were planted in puddled soil (mud) prepared by mixing a shredded, non-sterilized mineral soil (50.5 percent silt, 25.5 percent clay, and 24 percent sand, with a pH of about 7.6 and an organic matter content of about 2.9 percent) and water at a 1:1 volumetric ratio. The prepared mud was dispensed in 365 mL aliquots into 16-ounce (oz.) non-perforated plastic pots with a surface area of 86.59 square centimeters (cm^2) leaving a headspace of 3 centimeters (cm) in each pot. Mud was allowed to dry overnight prior to planting or transplanting. Rice seeds were planted in Sun Gro MetroMix® 306 planting mixture, which typically has a pH of 6.0 to 6.8 and an organic matter content of about 30 percent, in plastic plug trays. Seedlings at the second or third leaf stage of growth were transplanted into 840 mL of mud contained in 32-oz. non-perforated plastic pots with a surface area of 86.59 cm^2 4 days prior to herbicide application. The paddy was created by filling the headspace of the pots with 2.5 to 3 cm of water. When required to ensure good germination and healthy plants, a fungicide treatment and/or other chemical or physical treatment was applied. The plants were grown for 4-22 days in a greenhouse with an approximate 14 hr photoperiod which was maintained at about 29′C during the day and 26° C. during the night. Nutrients were added as Osmocote® (19:6:12, N:P:K+ minor nutrients) at 2 g per 16-oz. pot and 4 g per 32-oz. pot. Water was added on a regular basis to maintain the paddy flood, and supplemental lighting was provided with overhead metal halide 1000-Watt lamps as necessary. The plants were employed for testing when they reached the first through fourth true leaf stage.
Treatments consisted of the acid or esters of 4-amino-3-chloro-5-fluoro-6-(4-chloro-2-fluoro-3-methoxy-phenyl)pyridine-2-carboxylic acid (compound A) each formulated as an SC (suspension concentrate) and various herbicidal components alone and in combination. Forms of compound A were applied on an acid equivalent basis.
The herbicidal components were applied on an active ingredient basis and included very long chain fatty acid (VLCFA) synthesis-inhibiting and fatty acid/lipid synthesis-inhibiting herbicides acetochlor (technical grade material), acetochlor+dichlormid formulateded as Topnotch®, pretilachlor (technical grade material), butachlor formulated as Butachlor EC, fentrazamide formulated as Fentrazamide EC, thiobencarb formulated as Bolero® 8EC, cafenstrole formulated as Himeadow® WP or Lapost® Flowable, benfuresate formulated as Full Shot®, anilofos (technical grade material), mefenacet (technical grade material), molinate (technical grade material), and thenylchlor (technical grade material).
Treatment requirements for each compound or herbicidal component were calculated based upon the rates being tested, the concentration of active ingredient or acid equivalent in the formulation, an application volume of 2 mL per component per pot, and an application area of 86.59 cm^2 per pot.
For formulated compounds, a measured amount was placed in an individual 100 or 200 mL glass vial and was dissolved in a volume of 1.25% (v/v) Agri-Dex® crop oil concentrate to obtain application solutions.
For technical grade compounds, a weighed amount was placed in an individual 100 to 200 mL glass vial and was dissolved in a volume of acetone to obtain concentrated stock solutions. […] The concentrated stock solutions obtained were diluted with an equivalent volume of an aqueous mixture containing 2.5% (v/v) crop oil concentrate so that the final application solutions contained 1.25% (v/v) crop oil concentrate.
Applications were made by injecting with a pipetter appropriate amounts of the application solutions, individually and sequentially, into the aqueous layer of the paddy. Control plants were treated in the same manner with the solvent blank. […]

For a further assay, the system named is ECHCO. Description: Example I: postemergence foliar-applied weed control, greenhouse. Type of assay: in vivo, Echinochloa colona (L.) Link (junglerice). Conditions: for Visual Weed Control Obs: 20 DAA. Put shortly:
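Plants grown in loam/sandy loam–calcareous grit soil (80:20) in greenhouse, 14 hr photoperiod, about 29° C. day/26° C. night, treated postemergence at first to fourth true leaf stage. Foliar spray at 187 L/ha with 1.25% (v/v) crop oil concentrate; Compound A dosed on acid equivalent basis, partners on active ingredient basis.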

Consider `CCS(=O)(=O)Oc1ccc2c(c1)C(C)(C)CO2` [Benfuresate, 2,3-dihydro-3,3-dimethyl-5-benzofuranyl ethanesulfonate], for which the “Visual Weed Control LEFCH Obs” value in the assay with LEFCH (75 gai/ha (Full Slot), 22 DAA) came out at 0%; with LEFCH (150 gai/ha (Full Slot), 22 DAA), 0%. In addition, the “Visual Weed Control (%) - 22 DAA ECHCO Obs” value in the assay on ECHCO (75 gai/ha, foliar) came to 0%; in the assay with ECHCO (150 gai/ha, foliar), 0%; with ECHCO (300 gai/ha, foliar) it was 0%.

As for `CCN(CC)C(=O)n1cnc(S(=O)(=O)c2c(C)cc(C)cc2C)n1` [Cafenstrole, N,N-diethyl-3-[(2,4,6-trimethylphenyl)sulfonyl]-1H-1,2,4-triazole-1-carboxamide], in the assay with LEFCH (210 gai/ha (Lapost Flowable), 21 DAA), the “Visual Weed Control LEFCH Obs” value was determined as 38%. The “Visual Weed Control Obs” value in the assay with ECHCO (26.25 gai/ha Himeadow WP), in the assay on ECHCO (52.5 gai/ha Himeadow WP) and in the assay on ECHCO (105 gai/ha Himeadow WP) was 10% in each case.

For `COc1c(Cl)ccc(-c2nc(C(=O)O)c(Cl)c(N)c2F)c1F` [Compound A Acid, 4-amino-3-chloro-6-(4-chloro-2-fluoro-3-methoxyphenyl)-5-fluoropyridine-2-carboxylic acid], the “Visual Weed Control LEFCH Obs” value in the assay with LEFCH (10.6 gae/ha, 22 DAA) was 20%; in the assay on LEFCH (21.2 gae/ha, 22 DAA), 40%; in the assay on LEFCH (35 gae/ha, 21 DAA) it was 5%; in the assay on LEFCH (42.4 gae/ha, 22 DAA), 60%; in the assay with LEFCH (70 gae/ha, 21 DAA), 23%. The “Visual Weed Control (%) - 22 DAA ECHCO Obs” value in the assay on ECHCO (5.3 gae/ha, foliar) is on record as 65%; in the assay with ECHCO (10.6 gae/ha, foliar), 65%. Also, the “Visual Weed Control Obs” value in the assay on ECHCO (4.38 gae/ha) is 65% and 40% and 70%; with ECHCO (8.75 gae/ha) it was 85% and 60%.

On to `COc1c(Cl)ccc(-c2nc(C(=O)OCc3ccccc3)c(Cl)c(N)c2F)c1F` [Compound A Benzyl Ester, benzyl ester of 4-amino-3-chloro-5-fluoro-6-(4-chloro-2-fluoro-3-methoxy-phenyl)pyridine-2-carboxylic acid], for which the “Visual Weed Control LEFCH Obs” value in the assay with LEFCH (4.38 gae/ha, 22 DAA) came out at 20%; in the assay on LEFCH (8 gae/ha, 19 DAA) it was 0%; in the assay with LEFCH (16 gae/ha, 19 DAA), 0%; with LEFCH (32 gae/ha, 19 DAA), 15%; in the assay on LEFCH (35 gae/ha, 21 DAA), 50%; in the assay with LEFCH (70 gae/ha, 21 DAA) it was 50%. Besides, the “Visual Weed Control (%) - 22 DAA ECHCO Obs” value with ECHCO (5.3 gae/ha, foliar) turned out to be 30%; in the assay with ECHCO (10.6 gae/ha, foliar) it was 55%. The “Visual Weed Control (%) - 19 DAA ECHCO Obs” value in the assay on ECHCO (8 gae/ha, foliar) is 65%. Further, the “Visual Weed Control (%) - 20 DAA ECHCO Obs” value came to 40% in the assay on ECHCO (8 gae/ha, foliar); 60% in the assay with ECHCO (16 gae/ha, foliar); 90% in the assay on ECHCO (32 gae/ha, foliar). The “Visual Weed Control Obs” value in the assay with ECHCO (4.38 gae/ha) is 60%; with ECHCO (8.75 gae/ha), 85% and 70%.

Take `CCCOCCN(C(=O)CCl)c1c(CC)cccc1CC` [Pretilachlor, 2-chloro-N-(2,6-diethylphenyl)-N-(2-propoxyethyl)acetamide]: the “Visual Weed Control Obs” value in the assay on ECHCO (37.5 gai/ha), in the assay on ECHCO (75 gai/ha) and with ECHCO (150 gai/ha) was 0% each time.
